Results as given in patent US12172965B2, “Drug conjugate comprising quinoline derivatives” (UNIVERSITE PARIS-SACLAY, priority 2018, dated 2024).
Where two headings read alike, the source gives them in different places. Values belong to the compound of their own block, whether it stands above or below them.

Tests used:
[1] = system: cell line HCT116; conditions: molecules 4f/4j and 4g/4k of Alami et al. J. Med. Chem. 2019; cited from earlier work
[2] = system: SKOV3 (ovarian tumour); assay: Antiproliferative activity (IC50), CellTiter Glo, SKOV3; assay type: cell-based, human; conditions: Homo sapiens, SK-OV-3
Description: (§1) The IC50 (as per accepted terminology) activities of the compounds according to the invention 4-((3-amino-4-methoxyphenyl)(methyl)amino) quinoline-2-carbonitrile (ICQN-1); 5-(5-((2-cyanoquinolin-4-yl)(methyl)amino)-2-methoxyphenyl)-N-hydroxypent-4-ynamide (ICQN-2); and (E)-3-(5-((2-cyanoquinolin-4-yl)(methyl)amino)-2-methoxyphenyl)-N-hydroxyacrylamide (ICQN-3) were compared with compounds of the prior art and with a commercial and clinical reference compound, in particular MMAE (monomethylauristatin E). The IC50 activities were measured on various different cancer cell lines HCT116 (colorectal tumour), A549 (non-small cell lung cancer), NCI-N87 (gastric tumour), Mia-Paca-2 (pancreatic tumour), K562R (chronic myeloid leukemia), SKOV3 (ovarian tumour), SKBr3 (breast tumour, Her2 overexpression), MCF7 (breast tumour) and MDA-MB231 (breast tumour).
(§2) The cancer cell lines were obtained from the American Culture Collection (ATCC, Rockville, MD) or from the German collection of microorganisms and cell cultures of the Leibniz Institute (DSMZ, Braunschweig-Germany) or from the European collection of cell cultures (ECACC, England). The cancer cell lines were cultured according to the supplier's instructions.
(§3) The HCT-116 human colorectal carcinoma, SK-BR3 breast carcinoma, and SK-OV-3 ovarian carcinoma cells were cultured in Gibco McCoy's 5A medium supplemented with 10% foetal calf serum (FCS) and 1% glutamine.
(§4) The cells were counted using a Vi-cell XR (Beckman Coulter) and the cell viability was assessed by using 0.25% trypan blue dye exclusion assay. The cells were tested for the presence of mycoplasmas prior to the experiments with the Mycoplasma PCR detection kit (Applied Biological Materials Inc., Canada) according to the manufacturer's instructions, and only mycoplasma-free cells were used for the study. The cell lines were maintained at 37° C. in a humidified atmosphere containing 5% CO2.
(§5) After 24 hours of culturing, the cells were treated with the tested compounds at 10 different final concentrations. Each concentration was obtained from serial dilutions in culture medium starting from the stock solution. The control cells were treated with the carrier. The experiments were carried out in triplicate.
(§6) The measurements were performed after 72 hours of treatment using the CellTiter Glo assay (Promega) which makes it possible to measure through bioluminescence (quantification of adenosine triphosphate—ATP) the number of living cells, by using a PolarStar Omega microplate reader (BMG-Labtech).
(§7) The dose-response curves were plotted with the Graph Prism software application and the IC50 values were calculated using the Graph Prism software based on polynomial curves (four or five parameter logistic equations).

[3] = system: MCF7 (breast tumour); assay: Antiproliferative activity (IC50), CellTiter Glo, MCF7; assay type: cell-based; conditions: Homo sapiens, MCF7; free, unconjugated; 72 hours of treatment; read-out: MCF7 CI50
Description: as §1, §2
(§8) The breast adenocarcinoma cells MDA-MB231 and MCF7 were cultured in Gibco RPMI 1640 culture medium supplemented with 10% foetal calf serum (FCS) and 1% glutamine.
as §4, §5, §6, §7

[4] = system: K562R (chronic myeloid leukemia); assay: Antiproliferative activity (IC50), CellTiter Glo, K562R; assay type: cell-based; conditions: for IC50: Homo sapiens, K-562R
Description: as §1, §2
(§9) The A549 lung carcinoma cells, K562R myeloid leukemia cells, and the NCI-N87 gastric carcinoma cells were cultured in Gibco Roswell Park Memorial Institute (RPMI) 1640 medium supplemented with 10% foetal calf serum (FCS) and 1% glutamine. The Mia-Paca2 carcinoma cells were cultured in Gibco Dulbecco's Modified Eagle Medium (DMEM) supplemented with 10% foetal calf serum (FCS) and 1% glutamine.
as §4, §5, §6, §7
The K562R (chronic myeloid leukemia) cells have an MDR profile that allows them to be resistant to several chemotherapeutic compounds including the reference compound MMAE.

[5] = system: SKBr3 (breast tumour, Her2 overexpression); assay: Antiproliferative activity (IC50), CellTiter Glo, SKBr3; assay type: cell-based, human; conditions: Homo sapiens, SK-BR-3
Description: as §1, §2, §3, §4, §5, §6, §7

[6] = system: NCI-N87 (gastric tumour); assay: Antiproliferative activity (IC50), CellTiter Glo, NCI-N87; assay type: cell-based; conditions: Homo sapiens, NCI-N87
Description: as §1, §2, §9, §4, §5, §6, §7

[7] = system: Mia-Paca-2 (pancreatic tumour); assay: Antiproliferative activity (IC50), CellTiter Glo, Mia-Paca-2; assay type: cell-based; conditions: Homo sapiens, MIA PaCa-2
Description: as §1, §2, §9, §4, §5, §6, §7

[8] = system: MDA-MB231 (breast tumour); assay: Antiproliferative activity (IC50), CellTiter Glo, MDA-MB231; assay type: cell-based; conditions: Homo sapiens, MDA-MB-231; free, unconjugated; 72 hours of treatment; read-out: MDA-MB231 CI50
Description: as §1, §2, §8, §4, §5, §6, §7

[9] = system: A549 (non-small cell lung cancer); assay: Antiproliferative activity (IC50), CellTiter Glo, A549; assay type: cell-based; conditions: Homo sapiens, A549; comparative data 13b / ICQN-1; unit inferred; read-out: A549 (antiproliferative activity, Table 3)
Description: as §1, §2, §9, §4, §5, §6, §7

[10] = system: MDA-MB-231 cell line; conditions: published by Chen et al.; read-out: IC50 over the MDA-MB-231 cell line; cited from earlier work
[11] = system: HCT116 (colorectal tumour); assay: Antiproliferative activity (IC50), CellTiter Glo, HCT116; assay type: cell-based, human; conditions: Homo sapiens, HCT-116; comparative data 13b / ICQN-1; unit inferred; read-out: HCT116 (antiproliferative activity, Table 3)
Description: as §1, §2, §3, §4, §5, §6, §7

Compound: C=C(c1ccc2c(c1)c1ccccc1n2C)c1cc(C)nc2ccccc12
IC50 [1]: 2 nM

IC50 ([2]; free, unconjugated, 72 hours of treatment, read-out: SKOV3 IC50): 2.64 nM | IC50 [3]: 0.78 nM | IC50 ([4]; free, unconjugated, 72 hours of treatment, read-out: K562R IC50): 0.56 nM | IC50 ([5]; free, unconjugated, 72 hours of treatment, read-out: SKBr3 IC50): 1.78 nM | IC50 ([6]; free, unconjugated, 72 hours of treatment, read-out: NIC-N87 IC50): 0.1 nM | IC50 ([7]; free, unconjugated, 72 hours of treatment, read-out: Mia-Paca-2 IC50): 0.94 nM | IC50 [8]: 0.44 nM
Compound: COc1ccc(N(C)c2cc(C#N)nc3ccccc23)cc1/C=C/C(=O)NO [ICQN-3, (E)-3-(5-((2-cyanoquinolin-4-yl)(methyl)amino)-2-methoxyphenyl)-N-hydroxyacrylamide]

IC50 ([4]; resistant cancer cells, MDR profile, read-out: K562R (PgP+) IC50): 1.98 nM
Compound: C=C(c1ccc(OC)c(N)c1)c1cc(C)nc2ccccc12 [ICQO-1, reference compound]
Ratio vs MMAE, K562R (PgP+) ([4]; resistant cancer cells, MDR profile): 17

IC50 ([2]; comparative data 13b / ICQN-1, unit inferred, read-out: SKOV3 (antiproliferative activity, Table 3)): 1.28 nM | IC50 [9]: 0.68 nM | IC50 ([4]; comparative data 13b / ICQN-1, unit inferred, read-out: K562R (antiproliferative activity, Table 3)): 3.59 nM | IC50 ([5]; comparative data 13b / ICQN-1, unit inferred, read-out: SKBr3 (antiproliferative activity, Table 3)): 2.17 nM | IC50 ([6]; comparative data 13b / ICQN-1, unit inferred, read-out: NCI-N87 (antiproliferative activity, Table 3)): 4.36 nM | IC50 ([7]; comparative data 13b / ICQN-1, unit inferred, read-out: Mia-Paca2 (antiproliferative activity, Table 3)): 0.92 nM | IC50 [11]: 2.15 nM
Compound: COc1ccc(N(C)c2cc(C)nc3ccccc23)cc1N [Compound 13b, reference compound]
IC50 [10]: 3.2 nM
